The test system of assay [1] is bone marrow derived macrophages (BMDMs). Description: LPS-induced glycolysis in bone marrow derived macrophages (Seahorse). It counts as cell-based. To be noted: BMDMs serum-starved 2 hours, LPS (10 ng/mL)+I-1 for 4 hours; Seahorse bioanalyzer. As for the experimental part:
Differentiated bone marrow derived macrophages were serum-starved for 2 hours then treated with vehicle (Control), LPS (10 ng/mL) or LPS+ACLYi (I-1) for 4 hours. Glycolytic rate was assessed using Seahorse bioanalyzer.

The subject of assay [2] is tumor cancer pathway gene panel. The experiment in a line: Nanostring nCounter Cancer panel gene expression in tumor of DEN-injected mice. To be noted: 100 mg/kg, 4 weeks. It counts as in vivo, mouse. As for the experimental part:
Nanostring Analysis. RNA was extracted from paired liver and tumor tissue from vehicle, Compound I-1 (100 mg/kg) and Compound I-32 (100 mg/kg) treated mice using an RNeasy kit (Qiagen, Calif., USA) as per manufacturer's protocol. All RNA samples passed the BioAnalyzer quality control test. The expression of target genes in liver and tumor were analyzed using the nCounter Fibrosis and Cancer Panel (NanoString Technologies, Inc., WA, USA), respectively according to manufacturer's protocol at the McMaster Genomics Facility. Technical and biological normalization against global geometric mean was performed in nSolver 4.0 software (NanoString Technologies). Technical normalization was performed in the nSolver software (version 4.0.70) by normalizing sample target raw counts to the geometric mean of positive control spike-ins. […] Pathway scores were calculated as the first principal component of the normalized expression values for all genes in each pathway and samples were compiled according to experimental groups to determine average pathway scores. Statistical significance was calculated between experimental groups using multiple t-tests and p-values were corrected for multiple comparisons using Benjamin-Hochberg false discovery rate. […]

The subject of another assay is Il-6 mRNA. The experiment in a line: Il-6 mRNA by RT-qPCR. It counts as cell-based. (In general: Real-time PCR tracks product formation cycle by cycle.)
The test system of another assay is Il-1b mRNA. The experiment in a line: Il-1b mRNA by RT-qPCR. It counts as cell-based.

We go through one molecule from patent US11730712B2, “Functionalized long-chain hydrocarbon mono- and di-carboxylic acids and derivatives thereof, and their use for the prevention or treatment of disease” (ESPERVITA THERAPEUTICS, INC., priority 2021, dated 2023).

The structures appear in SMILES notation.

In the case of `CC(C)(CCCCc1ccc(CCCCC(C)(C)C(=O)O)cc1)C(=O)O` [Compound I-1, 6-[4-(5-carboxy-5-methylhexyl)-phenyl]-2,2-dimethylhexanoic acid], the “LPS-induced glycolysis (glycolytic rate)” value in assay [1] was “suppression”. Moreover, the “effects on tumor gene expression pathways related to cancer progression and survival” value in assay [2] was “exerted pronounced effects on gene expression pathways related to cancer progression and survival”. In the assay with Il-6 mRNA, the “marker of inflammation, Il-6 mRNA” value was “suppression”. In addition, the “marker of inflammation, Il-1b mRNA” value in the assay with Il-1b mRNA is recorded as “suppression”.
